Laboratory results reported in patent US7635572B2, “Methods for conducting assays for enzyme activity on protein microarrays” (Life Technologies Corporation, priority 2004, dated 2009).

How the values were obtained:
[1] = target: T1, plurality of kinases (Table 5) (Homo sapiens, UniProt O43318); assay: Further analysis of a plurality of inhibitors and a plurality of kinases on microarray (Example IX, Table 5); assay type: biochemical; conditions: plate G9;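 further: inhibition of each kinase by the inhibitors is given as a qualitative level; level 0 none or unclear then 1 little or marginal then 2 substantial inhibition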
T1 sequence (O43318 1-606): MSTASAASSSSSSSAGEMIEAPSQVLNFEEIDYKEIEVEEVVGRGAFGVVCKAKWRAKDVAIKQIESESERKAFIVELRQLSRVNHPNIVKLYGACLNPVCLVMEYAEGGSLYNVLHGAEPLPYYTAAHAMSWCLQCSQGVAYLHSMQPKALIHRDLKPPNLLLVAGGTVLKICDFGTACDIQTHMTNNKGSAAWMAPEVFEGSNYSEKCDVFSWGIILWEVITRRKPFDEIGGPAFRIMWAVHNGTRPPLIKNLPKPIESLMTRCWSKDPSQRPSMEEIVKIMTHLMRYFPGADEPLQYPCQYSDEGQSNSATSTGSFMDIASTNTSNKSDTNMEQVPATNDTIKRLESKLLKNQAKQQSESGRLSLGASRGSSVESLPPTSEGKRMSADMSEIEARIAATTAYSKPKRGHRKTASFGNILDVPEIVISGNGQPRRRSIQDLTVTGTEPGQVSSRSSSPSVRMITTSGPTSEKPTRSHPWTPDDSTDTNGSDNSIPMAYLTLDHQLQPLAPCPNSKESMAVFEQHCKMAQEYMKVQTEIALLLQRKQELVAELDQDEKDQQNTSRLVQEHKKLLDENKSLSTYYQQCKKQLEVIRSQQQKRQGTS

[2] = target: plurality of kinases (Table 5) (Homo sapiens, UniProt P21802); assay: as above; assay type: biochemical
[3] = target: plurality of kinases (Table 5) (Homo sapiens, UniProt P37173); assay: as above; assay type: biochemical; conditions: plate C7
[4] = target: T2, plurality of kinases (Table 5) (Homo sapiens, UniProt Q08881); assay: as above; assay type: biochemical; conditions: plate E4; inhibitor 100 uM
T2 sequence (Q08881 1-620): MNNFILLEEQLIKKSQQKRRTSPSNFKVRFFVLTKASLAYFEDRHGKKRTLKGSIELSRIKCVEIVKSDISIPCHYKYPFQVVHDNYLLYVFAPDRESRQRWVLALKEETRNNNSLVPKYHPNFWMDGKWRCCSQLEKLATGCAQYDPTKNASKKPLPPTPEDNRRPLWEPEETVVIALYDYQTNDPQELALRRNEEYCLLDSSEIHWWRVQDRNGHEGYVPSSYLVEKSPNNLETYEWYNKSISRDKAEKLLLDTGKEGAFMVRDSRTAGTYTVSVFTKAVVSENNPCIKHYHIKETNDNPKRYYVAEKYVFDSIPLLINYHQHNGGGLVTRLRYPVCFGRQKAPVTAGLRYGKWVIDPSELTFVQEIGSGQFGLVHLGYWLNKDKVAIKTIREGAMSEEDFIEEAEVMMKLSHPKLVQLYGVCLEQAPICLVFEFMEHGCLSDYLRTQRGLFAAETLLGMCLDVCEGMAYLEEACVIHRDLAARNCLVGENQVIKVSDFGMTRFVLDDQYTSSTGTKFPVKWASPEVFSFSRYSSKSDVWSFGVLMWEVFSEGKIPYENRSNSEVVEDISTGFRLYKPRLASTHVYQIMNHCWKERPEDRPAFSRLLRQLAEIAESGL

[5] = target: plurality of kinases (Table 5) (Homo sapiens, UniProt Q8IU85); assay: as above; assay type: biochemical; conditions: plate D2; inhibitor 100 uM
[6] = target: T3, plurality of kinases (Table 5) (Homo sapiens, UniProt Q8IVH8); assay: as above; assay type: biochemical; conditions: plate C5; inhibitor 100 uM
T3 sequence (Q8IVH8 1-894): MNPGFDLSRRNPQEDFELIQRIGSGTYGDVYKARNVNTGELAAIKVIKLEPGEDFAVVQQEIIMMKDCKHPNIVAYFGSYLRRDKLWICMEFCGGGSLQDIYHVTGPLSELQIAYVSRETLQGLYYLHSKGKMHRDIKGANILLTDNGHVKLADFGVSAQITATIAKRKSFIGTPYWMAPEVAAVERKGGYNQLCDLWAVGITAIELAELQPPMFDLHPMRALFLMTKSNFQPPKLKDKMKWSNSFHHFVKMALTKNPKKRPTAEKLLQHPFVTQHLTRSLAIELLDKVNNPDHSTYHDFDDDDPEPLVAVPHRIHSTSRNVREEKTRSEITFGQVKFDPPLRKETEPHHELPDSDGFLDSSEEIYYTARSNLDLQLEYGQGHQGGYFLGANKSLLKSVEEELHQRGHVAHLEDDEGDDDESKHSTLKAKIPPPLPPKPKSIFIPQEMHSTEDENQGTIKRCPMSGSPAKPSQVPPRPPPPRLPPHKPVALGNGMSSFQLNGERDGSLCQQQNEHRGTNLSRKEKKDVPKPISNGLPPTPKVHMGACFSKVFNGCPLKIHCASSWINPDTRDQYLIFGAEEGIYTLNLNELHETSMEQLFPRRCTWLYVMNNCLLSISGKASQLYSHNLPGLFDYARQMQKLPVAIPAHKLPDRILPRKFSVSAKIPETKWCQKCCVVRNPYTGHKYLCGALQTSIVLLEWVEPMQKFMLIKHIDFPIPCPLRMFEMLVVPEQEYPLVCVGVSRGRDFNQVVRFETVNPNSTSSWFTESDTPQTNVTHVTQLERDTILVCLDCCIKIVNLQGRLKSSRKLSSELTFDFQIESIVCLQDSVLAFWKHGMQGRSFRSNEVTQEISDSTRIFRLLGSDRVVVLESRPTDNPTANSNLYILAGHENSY

[7] = system: 39 kinases (Table 4); conditions: known general specificities of the inhibitors, Table 3; cited from earlier work
[8] = target: plurality of kinases (Table 5) (Homo sapiens, UniProt Q13557); assay: Further analysis of a plurality of inhibitors and a plurality of kinases on microarray (Example IX, Table 5); assay type: biochemical; conditions: plate B1; inhibitor 100 uM;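 further: inhibition of each kinase by the inhibitors is given as a qualitative level; level 0 none or unclear then 1 little or marginal then 2 substantial inhibition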
[9] = system: 39 kinases (Table 4); assay: Global specificity profiling, single point inhibition on kinase microarrays (Example VII); assay type: biochemical; conditions: substrates histone, casein, MBP, polyEY, control 2% DMSO
Description: To assess the application of microarray assays for compound profiling, seven known inhibitors (see Table of inhibitors used in global specificity profiling experiment) and one control (2% DMSO) were tested on microarrays printed with a group of kinases (as well as positive and negative controls). […] Twelve spots of each kinase or control were printed on each array, and three arrays were used for each inhibitor. A mixture of generic kinase substrates (histone, casein, MBP, and polyEY) was used in the assay. The average of all signals from the same inhibitor or control experiment was calculated.
To expedite data analysis regarding the kinase families that are inhibited by a particular […], a graphical representation can be constructed of inhibition data for substrates in such a manner that phylogenetically related kinases can be spatially arranged on the graphical representation.

Sequence of plurality of kinases (Table 5) (Homo sapiens, UniProt Q8IU85) (Q8IU85 whole entry): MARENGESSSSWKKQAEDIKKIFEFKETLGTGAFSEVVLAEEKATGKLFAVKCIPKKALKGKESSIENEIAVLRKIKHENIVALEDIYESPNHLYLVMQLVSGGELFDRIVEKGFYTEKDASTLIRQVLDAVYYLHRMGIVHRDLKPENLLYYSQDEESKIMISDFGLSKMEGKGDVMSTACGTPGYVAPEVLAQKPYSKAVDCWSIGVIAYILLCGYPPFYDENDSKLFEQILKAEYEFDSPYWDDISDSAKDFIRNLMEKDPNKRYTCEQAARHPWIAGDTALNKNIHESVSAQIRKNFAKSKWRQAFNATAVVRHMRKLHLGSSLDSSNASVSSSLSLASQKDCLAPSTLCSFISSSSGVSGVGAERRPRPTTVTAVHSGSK
Sequence of plurality of kinases (Table 5) (Homo sapiens, UniProt P21802) (P21802 22-821): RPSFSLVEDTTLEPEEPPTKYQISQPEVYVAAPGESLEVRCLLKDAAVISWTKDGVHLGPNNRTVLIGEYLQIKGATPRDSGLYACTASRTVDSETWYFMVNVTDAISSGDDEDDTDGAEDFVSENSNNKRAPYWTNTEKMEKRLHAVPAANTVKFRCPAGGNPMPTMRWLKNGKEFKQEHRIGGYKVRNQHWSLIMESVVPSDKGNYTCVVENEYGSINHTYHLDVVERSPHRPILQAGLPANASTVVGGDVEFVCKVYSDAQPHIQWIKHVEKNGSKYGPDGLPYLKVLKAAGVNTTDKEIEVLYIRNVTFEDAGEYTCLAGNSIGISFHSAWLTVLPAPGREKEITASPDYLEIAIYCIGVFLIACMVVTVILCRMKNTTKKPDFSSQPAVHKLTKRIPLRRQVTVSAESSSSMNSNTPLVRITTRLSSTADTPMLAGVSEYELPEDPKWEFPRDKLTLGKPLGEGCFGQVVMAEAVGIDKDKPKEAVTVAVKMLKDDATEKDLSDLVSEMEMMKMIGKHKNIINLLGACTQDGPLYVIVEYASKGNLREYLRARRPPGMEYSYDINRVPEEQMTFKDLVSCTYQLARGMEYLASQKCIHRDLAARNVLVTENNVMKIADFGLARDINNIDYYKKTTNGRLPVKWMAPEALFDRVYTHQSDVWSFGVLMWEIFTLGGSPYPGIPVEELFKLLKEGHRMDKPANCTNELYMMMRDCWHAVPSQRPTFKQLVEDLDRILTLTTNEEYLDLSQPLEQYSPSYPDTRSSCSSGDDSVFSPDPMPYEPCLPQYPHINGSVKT
Sequence of plurality of kinases (Table 5) (Homo sapiens, UniProt P37173) (P37173 23-567): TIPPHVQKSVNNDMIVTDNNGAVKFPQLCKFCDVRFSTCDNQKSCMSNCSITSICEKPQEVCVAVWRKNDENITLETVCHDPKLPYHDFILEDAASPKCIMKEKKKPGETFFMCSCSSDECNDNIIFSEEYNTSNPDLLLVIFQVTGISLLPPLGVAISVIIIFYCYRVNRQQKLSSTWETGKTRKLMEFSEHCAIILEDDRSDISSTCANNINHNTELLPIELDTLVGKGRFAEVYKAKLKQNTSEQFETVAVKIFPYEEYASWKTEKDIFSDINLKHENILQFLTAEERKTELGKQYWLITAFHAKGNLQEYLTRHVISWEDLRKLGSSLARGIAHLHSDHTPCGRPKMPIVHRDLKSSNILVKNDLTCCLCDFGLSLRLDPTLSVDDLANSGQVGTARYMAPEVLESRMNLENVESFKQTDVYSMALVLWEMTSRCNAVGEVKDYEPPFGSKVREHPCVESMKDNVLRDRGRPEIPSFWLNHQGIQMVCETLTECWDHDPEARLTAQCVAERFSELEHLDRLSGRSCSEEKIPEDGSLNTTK
Sequence of plurality of kinases (Table 5) (Homo sapiens, UniProt Q13557) (Q13557 whole entry): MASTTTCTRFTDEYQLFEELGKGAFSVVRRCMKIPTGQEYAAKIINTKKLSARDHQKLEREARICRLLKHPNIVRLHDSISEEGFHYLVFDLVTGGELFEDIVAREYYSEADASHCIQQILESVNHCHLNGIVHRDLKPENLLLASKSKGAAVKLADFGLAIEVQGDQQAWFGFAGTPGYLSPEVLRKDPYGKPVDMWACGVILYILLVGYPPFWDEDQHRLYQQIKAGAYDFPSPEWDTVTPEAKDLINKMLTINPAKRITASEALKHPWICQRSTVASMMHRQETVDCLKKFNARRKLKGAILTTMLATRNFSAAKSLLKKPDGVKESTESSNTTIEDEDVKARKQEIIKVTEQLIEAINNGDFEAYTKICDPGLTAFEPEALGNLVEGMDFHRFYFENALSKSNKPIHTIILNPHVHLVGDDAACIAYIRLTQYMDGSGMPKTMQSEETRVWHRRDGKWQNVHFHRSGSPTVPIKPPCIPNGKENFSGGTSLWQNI

Compound: N#C/C(=C/c1ccc(O)c(O)c1)C(=O)NCc1ccccc1 [AG 490]
- Inhibition level, MAP3K7 ([1]; inhibitor 100 uM): 0
- Inhibition level, FGFR2 ([2]; plate B4, inhibitor 100 uM): 2
- Inhibition level, FGFR2 ([2]; plate G8, inhibitor 100 uM): 2
- Inhibition level, TGFBR2 ([3]; inhibitor 100 uM): 2
- Inhibition level, ITK [4]: 1
- Inhibition level, LOC57118 [5]: 1
- Inhibition level, MAP4K3 [6]: 1
- General Specificity (known) [7]: tyrosine

Compound: COc1cc2ncnc(Nc3cccc(Cl)c3)c2cc1OC [AG 1478]
- Inhibition level, MAP3K7 ([1]; inhibitor 100 uM): 0
- Inhibition level, FGFR2 ([2]; plate B4, inhibitor 100 uM): 2
- Inhibition level, FGFR2 ([2]; plate G8, inhibitor 100 uM): 2
- Inhibition level, TGFBR2 ([3]; inhibitor 100 uM): 2
- Inhibition level, ITK [4]: 1
- Inhibition level, LOC57118 [5]: 0
- Inhibition level, MAP4K3 [6]: 2

Compound: O=c1c(-c2ccc(O)cc2)coc2cc(O)cc(O)c12 [Genistein]
- Inhibition level, MAP3K7 ([1]; Genistein <3.7 mM): 0
- Inhibition level, MAP3K7 ([1]; inhibitor 100 uM): 1
- Inhibition level, FGFR2 ([2]; plate B4, Genistein, conc. not given): 1
- Inhibition level, FGFR2 ([2]; plate B4, inhibitor 100 uM): 2
- Inhibition level, FGFR2 ([2]; plate G8, Genistein <3.7 mM): 0
- Inhibition level, FGFR2 ([2]; plate G8, inhibitor 100 uM): 2
- Inhibition level, TGFBR2 ([3]; Genistein <3.7 mM): 1
- Inhibition level, TGFBR2 ([3]; inhibitor 100 uM): 2
- Inhibition level, ITK [4]: 2
- Inhibition level, LOC57118 [5]: 0
- Inhibition level, MAP4K3 [6]: 2
- General Specificity (known) [7]: tyrosine

Compound: O=S(=O)(NCCNC/C=C/c1ccc(Br)cc1)c1cccc2cnccc12 [H-89]
- Inhibition level, MAP3K7 ([1]; inhibitor 100 uM): 2
- Inhibition level, FGFR2 ([2]; plate B4, inhibitor 100 uM): 2
- Inhibition level, FGFR2 ([2]; plate G8, inhibitor 100 uM): 2
- Inhibition level, TGFBR2 ([3]; inhibitor 100 uM): 2
- Inhibition level, ITK [4]: 1
- Inhibition level, CAMK2D [8]: 0
- Inhibition level, LOC57118 [5]: 1
- Inhibition level, MAP4K3 [6]: 1
- General Specificity (known) [7]: serine/threonine

Compound: CC(C)(C)n1nc(-c2ccc(Cl)cc2)c2c(N)ncnc21 [PP2]
- observed specificity (percentage-of-inhibition data for 39 kinases) [9]: primarily inhibited tyrosine kinases
- Inhibition level, MAP3K7 ([1]; inhibitor 100 uM): 2
- Inhibition level, FGFR2 ([2]; plate B4, inhibitor 100 uM): 2
- Inhibition level, FGFR2 ([2]; plate G8, inhibitor 100 uM): 2
- Inhibition level, TGFBR2 ([3]; inhibitor 100 uM): 2
- Inhibition level, ITK [4]: 2
- Inhibition level, LOC57118 [5]: 0
- Inhibition level, MAP4K3 [6]: 2
- General Specificity (known) [7]: tyrosine

Compound: O=c1c(O)c(-c2ccc(O)c(O)c2)oc2cc(O)cc(O)c12 [Quercetin]
- Inhibition level, FGFR2 ([2]; plate B4, inhibitor 100 uM): 0
- Inhibition level, FGFR2 ([2]; plate G8, inhibitor 100 uM): 0
- Inhibition level, TGFBR2 ([3]; inhibitor 100 uM): 0
- Inhibition level, ITK [4]: 0
- Inhibition level, LOC57118 [5]: 0
- Inhibition level, MAP4K3 [6]: 1

Compound: Cn1cc(C2=C(c3cn(CCCSC(=N)N)c4ccccc34)C(=O)NC2=O)c2ccccc21 [Ro-31-8220]
- observed specificity (percentage-of-inhibition data for 39 kinases) [9]: more specifically targeted the serine-threonine kinases
- Inhibition level, MAP3K7 ([1]; Ro-31-8220 90 uM): 2
- Inhibition level, MAP3K7 ([1]; inhibitor 100 uM): 2
- Inhibition level, FGFR2 ([2]; plate B4, Ro-31-8220, conc. not given): 0
- Inhibition level, FGFR2 ([2]; plate B4, inhibitor 100 uM): 2
- Inhibition level, FGFR2 ([2]; plate G8, Ro-31-8220 90 uM): 2
- Inhibition level, FGFR2 ([2]; plate G8, inhibitor 100 uM): 2
- Inhibition level, TGFBR2 ([3]; Ro-31-8220 90 uM): 2
- Inhibition level, TGFBR2 ([3]; inhibitor 100 uM): 2
- Inhibition level, ITK [4]: 2
- Inhibition level, LOC57118 [5]: 0
- Inhibition level, MAP4K3 [6]: 2
- General Specificity (known) [7]: serine/threonine

Compound: CC(=O)c1c(O)c(C)c(O)c(Cc2c(O)c3c(c(C(=O)/C=C/c4ccccc4)c2O)OC(C)(C)C=C3)c1O [Rottlerin (Mallotoxin)]
- Inhibition level, MAP3K7 ([1]; inhibitor 100 uM): 2
- Inhibition level, FGFR2 ([2]; plate B4, inhibitor 100 uM): 0
- Inhibition level, FGFR2 ([2]; plate G8, inhibitor 100 uM): 2
- Inhibition level, TGFBR2 ([3]; inhibitor 100 uM): 2
- Inhibition level, ITK [4]: 1
- Inhibition level, CAMK2D [8]: 2
- Inhibition level, LOC57118 [5]: 0
- Inhibition level, MAP4K3 [6]: 1

Compound: CN[C@@H]1C[C@H]2O[C@@](C)([C@@H]1OC)n1c3ccccc3c3c4c(c5c6ccccc6n2c5c31)C(=O)NC4 [Staurosporine]
- Inhibition level, TGFBR2 ([3]; Staurosporine 21.5 uM): 2
- General Specificity (known) [7]: broad
